Assay results from patent US20220096529A1, “2-HYDROXYPROPYL-BETA-CYCLODEXTRIN (HPBETACD) FOR USE IN THE TREATMENT OF BREAST CANCER” (UNIVERSITY OF THE WITWATERSRAND, JOHANNESBURG, priority 2019, published 2022).

Experiments:
Assay type in all cases: cell-based, human
MCF7 cells [1] = test: Mitochondrial outer membrane potential assay (MOMP); details: MCF7, 10 mM, 24 hrs
Experimental: (§1) One of the key hallmarks of apoptosis is the loss of mitochondrial membrane potential. To investigate that aspect we did a MOMP assay which validates our Cell-APOPercentage assay. This assay was tested on three cell lines MCF7, MDA-MB-231 & MRC-5. The top right and bottom hand quadrants of each plot represents healthy (FL2-A) and apoptotic (FL1-A) cells respectively (see FIGS. 13 to 15).
(§2) From the results obtained from MTT (IC50 values) and Cell-APOPercentage assays it was quite evident that ˜10 mM HPβCD caused cellular growth inhibition through apoptosis in cancer cells and had little or no effect in normal cells. Therefore, we selected just 10 mM HPβCD going forward as the only working concentration for HPβCD treatment. 24 hrs time point was selected (HPβCD & 10 mM H2O2) because mitochondrial membrane potential loss is an early cellular event.

MDA-MB-231 cells [2] = test: as above; details: MDA-MB-231, 10 mM, 24 hrs
Experimental: as §1, §2

MCF7 cells [3] = test: ROS assay; details: MCF7, 10 mM, 24 hrs
Experimental: (§3) To further validate the occurrence of apoptosis and to investigate the exact mechanisms if apoptosis, a ROS assay was conducted to capture the production of ROS. […] In order to be in solidarity with this fact, a ROS assay was performed in three cell lines: MCF7, MDA-MB-231 & MRC-5. Like before, HPβCD and the positive (10 mM H2O2) were treated for 24 hrs. The right hand section in each plot represents the production of ROS.

MDA-MB-231 cells [4] = test: ROS assay; details: MDA-MB-231, 10 mM, 24 hrs
Experimental: as §3

MRC-5 cells = test: ROS assay; details: MRC-5, 10 mM, 24 hrs
Experimental: as §3

MCF7 cells [5] = test: MTT growth inhibition assay; details: Homo sapiens, MCF7, 40 μM Plumbagin
Experimental: (§4) Cells were cultured in appropriate medium supplemented with 10% FCS, penicillin (100 U/ml), and streptomycin (100 μg/ml) (Gibco) at 5% CO2 in a 37° C. incubator.
(§5) Four different cell lines were used MCF7 (ER+). MDA-MB-231 (ER−), MRC-5 (Lung Fibroblasts) and HEK-293 (Embryonic kidney). MRC-5 and/or HEK-293 were used as control cell lines depending on availability.
(§6) In order to determine whether HPβCD has the ability to induce cancer cell death a primary screening using an MTT assay was performed. Three different time points 24 hrs.

MDA-MB-231 cells [6] = test: MTT growth inhibition assay; details: Homo sapiens, MDA-MB-231, 40 μM Plumbagin
Experimental: as §4, §5, §6

MCF7 cells [7] = test: Cell-APOPercentage apoptosis assay; details: MCF7, 10 μM Plumbagin, 24 hrs
Experimental: (§7) APOPercentage assays gives a measure of overall apoptosis in the cell. Apoptosis is an early event and therefore just one time point (24 hrs) was selected and tested on four cell lines MCF7, MDA-MB-231, MRC-5 & HEK-293 cells. 10 μM Plumbagin was used a positive control as opposed to 40 μM from MTT because higher concentrations of plumbagin was way too toxic for the cells and to capture the early activity, optimal dosage was required. To confirm the growth inhibition obtained from the MTT assay was actually due to apoptosis, a Cell-APOPercentage Apoptosis assay was performed according to known methods.

MDA-MB-231 cells [8] = test: Cell-APOPercentage apoptosis assay; details: MDA-MB-231, 10 μM Plumbagin, 24 hrs
Experimental: as §7

HEK-293 cells = test: Caspase 3/7 assay; details: HEK-293, 40 μM Plumbagin, 24 hrs
Experimental: (§8) The final step in apoptosis following the intrinsic pathway is the activation of executioner caspases like caspase 3 and caspase 7 […]. Therefore, to confirm that cell death was due to the mitochondrial mediated pathway of apoptosis a Caspase 3/7 assay was conducted. Caspases are activated in response to a myriad of cellular death stimuli and they dismantle the cell. Caspase 3 and caspase 7 contribute to the majority of proteolytic cleavage occurring in apoptosis. As a final step to confirm and validate apoptosis via the mitochondrial intrinsic pathway, the Caspase 3/7 assay was conducted on three cell lines: MCF7, MDA-MB-231 & HEK-293. HPβCD and positive (40 μM PL) were treated for 24 hrs. The percentage of dead/apoptotic cells are clearly indicated in specific corners of each quadrants in the above plots.

MCF7 cells [9] = test: Caspase 3/7 assay; details: MCF7, 40 μM Plumbagin, 24 hrs
Experimental: as §8

MDA-MB-231 cells [10] = test: Caspase 3/7 assay; details: MDA-MB-231, 40 μM Plumbagin, 24 hrs
Experimental: as §8

SMILES	apoptotic population (loss of mitochondrial membrane potential) (MCF7 cells [1])	apoptotic cells / cell death (loss of mitochondrial membrane potential) (MDA-MB-231 cells [2])	ROS generation (MCF7 cells [3])	ROS generation (MDA-MB-231 cells [4])	ROS generation (MRC-5 cells)	inhibition at 40 µM (MCF7 cells [5]; 24 hrs)	inhibition at 40 µM (MCF7 cells [5]; 48 hrs)	inhibition at 40 µM (MCF7 cells [5]; 72 hrs)	inhibition at 40 µM (MDA-MB-231 cells [6]; 24 hrs)	inhibition at 40 µM (MDA-MB-231 cells [6]; 48 hrs)	inhibition at 40 µM (MDA-MB-231 cells [6]; 72 hrs)	apoptosis (MCF7 cells [7])	apoptosis (MDA-MB-231 cells [8])	Total Apoptotic (caspase 3/7) (HEK-293 cells)	Total Apoptotic (caspase 3/7) (HEK-293 cells; listed as PL)	Total Apoptotic (caspase 3/7) (MCF7 cells [9])	Total Apoptotic (caspase 3/7) (MDA-MB-231 cells [10])
OO [H2O2, reference compound]	92.1%	92.4%	88.5%	73%	64.1%	–	–	–	–	–	–	–	–	–	–	–	–
CC1=CC(=O)c2c(O)cccc2C1=O [Plumbagin, reference compound]	–	–	–	–	–	~80%	~90%	~100%	~85%	~92%	~95%	~90%	~90%	72.40%	72.4%	23.55%	80.45%
